Assay results: patent US20260226026A1, “COMPOUND AS CTPS1 INHIBITOR” (Hangzhou Innogate Pharma Co., Ltd., priority 2023, published 2026)
Where two headings read alike, the source gives them in different places.

How the values were obtained:
hCTPS1 enzyme = molecular target: T1, hCTPS1 enzyme (Homo sapiens, UniProt P17812); experiment: Inhibition of CTPS1 enzyme activity (ADP-Glo method); assay type: biochemical; details: hCTPS1, 90 min reaction at 25° C.
T1 sequence (P17812 1-591): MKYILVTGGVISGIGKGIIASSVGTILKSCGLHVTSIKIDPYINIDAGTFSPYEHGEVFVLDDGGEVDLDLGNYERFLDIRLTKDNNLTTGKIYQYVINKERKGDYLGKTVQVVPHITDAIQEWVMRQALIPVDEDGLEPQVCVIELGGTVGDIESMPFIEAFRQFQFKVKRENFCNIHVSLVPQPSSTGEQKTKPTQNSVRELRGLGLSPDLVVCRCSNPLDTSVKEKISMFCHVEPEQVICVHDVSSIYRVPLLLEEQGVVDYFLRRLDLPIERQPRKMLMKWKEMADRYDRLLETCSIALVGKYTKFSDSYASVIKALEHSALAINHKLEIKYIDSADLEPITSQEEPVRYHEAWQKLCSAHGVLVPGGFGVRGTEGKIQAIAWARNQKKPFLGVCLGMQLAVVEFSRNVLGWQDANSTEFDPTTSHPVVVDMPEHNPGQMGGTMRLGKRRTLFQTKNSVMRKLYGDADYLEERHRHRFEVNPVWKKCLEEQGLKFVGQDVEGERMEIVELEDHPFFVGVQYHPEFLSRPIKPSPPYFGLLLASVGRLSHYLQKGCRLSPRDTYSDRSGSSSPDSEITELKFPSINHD
Description: The enzyme activity of CTPS1 was tested using the ADP-Glo method. Compounds were serially diluted in DMSO with 3-fold gradients across ten concentrations. Transfer 0.1 μL of diluted compound to a 384-well plate, centrifuge at 1000 rpm for 1 min. Add 2.5 μL of hCTPS1 enzyme working solution, centrifuge at 1000 rpm for 1 min, and incubate at 25° C. for 10 min. Add 2.5 μL of ATP & UTP solution and incubate at 25° C. for 10 min. Add 5 μL of substrate solution to initiate the reaction and incubate at 25° C. for 90 min. Add 10 μL of ADP-Glo solution to the 384-well plate, centrifuge at 1000 rpm for 1 min, incubate at 25° C. for 40 min, add 20 μL of detection solution, centrifuge at 1000 rpm for 1 min, and incubate at 25° C. for 60 min. […] were read using a BMG microplate reader. Inhibition rate (%) was calculated as follows: Inhibition rate (%)=[(DMSO control well signal−Compound well signal)/(DMSO control well signal−Blank control well signal)]×100%. IC50 values for compounds were analyzed by nonlinear regression in XLFit 5.5.0 software using the formula: Y=Bottom+(Top−Bottom)/(1+10^((LogIC50−X)*HillSlope)) where Y is the inhibition rate and X is the log value of compound concentration.

Jurkat cells = experiment: Inhibition of Jurkat cell proliferation (CellTiter-Glo, 72 hours); assay type: cell-based; details: Homo sapiens
Description: Select Jurkat cells in good growth condition and digest them with trypsin. Add fresh culture medium, mix thoroughly, and centrifuge at 1000 rpm for 5 minutes. Seed the cells into a 96-well plate at a density of 10,000 cells per well, and incubate overnight in a 37° C. incubator. On the following day, take out of the culture plate and treat the cells with compounds prepared in a five-fold serial dilution. Return the plate to the 37° C. incubator and continue incubation for 72 hours.
After incubation, bring out the cell culture plate and equilibrate it to room temperature. Add 100 μL of CellTiter-Glo reagent to each well, shake in the dark for 2 minutes, and incubate for 10 minutes. Measure the luminescence using an Enspire plate reader. Calculate the inhibition rate using the following formula: Inhibition rate (%)=(1−(RLU_compound−RLU_blank)/(RLU_DMSO−RLU_blank))×100%. Plot the dose-response curve and calculate the IC50 value using XLFit.

in vivo = experiment: in vivo; set-up: species or system SD rats; details: male, SD, rat, po, 3 mg/kg
Description: Instrumentation: SCIEX Triple Quad 6500+ triple quadrupole liquid chromatography-mass spectrometry system (LC-MS/MS), operating software is Analyst 1.7.2 (Applied Biosystems, USA); ExionLC liquid chromatography system; Microsoft Excel was used for data calculation and processing. Pharmacokinetic parameters were calculated using the statistical moment method with WinNonlin 8.2 software. Key kinetic parameters included Tmax, T1/2, Cmax, AUC0-24 h etc. Column: Synergi 4 μm Fusion-RP 80 Å Luna C18 2 mm*50 mm, 4 μm; Column temperature: 40° C.; Mobile phase A: Water (0.1% formic acid); Mobile phase B: Acetonitrile; Flow rate: 0.8 mL/min; Gradient elution is adopted, the elution gradient is 0.10 min: 15% B; 1.60 min: 95% B; 1.90 min: 95% B; 1.91 min: 15% B; 2.20 min: 15% B. Injection volume: 1 μL.
Animals: 3 male SD rats with a weight range of 200-220 g were purchased and kept in the laboratory of the Experimental Animal Center for 3 days and then used. They were fasted for 12 hours predose and 4 hours after dosing. Drinking water was free during the test. After the rats were gavage, blood samples were taken according to the established time point.
Solvent: 0.4% ethanol+0.4% Tween80+99.2% (0.5% methylcellulose M450). Preparation of the solution for intragastric administration: Compounds were accurately weighed and added to the solvent. The mixture was then subjected to vortex mixing and sonication until a homogeneous suspension was achieved, thereby preparing medicinal solutions of the desired concentrations.
Compound samples: Typically, multiple structurally analogous compounds (with molecular weights differing by more than 2 units) were accurately weighed and administered together (cassette PK). This approach allows for the simultaneous screening of multiple compounds and comparison of their oral absorption rates. Single compound administration was also employed to study the pharmacokinetics of drug samples in rats.
After intragastric administration, blood was collected from the jugular vein at 0.25, 0.5, 1, 2, 4, 8, 10 and 24 hours. Transfer 20 μL of plasma sample (for blank samples and internal standard blank samples, add 20 μL of blank plasma) to a 1.5 mL centrifuge tube, add 200 μL of internal standard solution (50% methanol in acetonitrile (concentration 100 ng/mL)) (for Double blank samples, add 200 μL of 50% methanol in acetonitrile solution). Vortex the samples for 5 minutes, then centrifuge at 14000 rpm and 4° C. for 5 minutes. Transfer 80 μL and add to 80 μL of water, mix uniformly, and submit for LC-MS/MS analysis.
The compounds were accurately weighed to prepare different concentrations, and quantitative analysis on mass spectrometry was performed to establish a standard curve, and then the concentration of the above-mentioned compound in the plasma was tested to obtain its concentration at different time points. All measurement data were collected and processed by relevant software, and the statistical moment method was used to calculate the pharmacokinetic parameters (mainly including kinetic parameters Tmax, T1/2, Cmax, AUC0-24 h etc).

[1] = Jurkat cells, 72 hours, CellTiter-Glo, read-out: Jurkat (IC50)

SMILES	IC50 (hCTPS1 enzyme)	IC50 (Jurkat cells; [1])	AUC(0-t) (in vivo)	Cmax (in vivo)	Tmax (in vivo)	half-life (in vivo)	IC50 (Jurkat cells; Jurkat, 72 h, read-out: Jurkat (IC50, nM))
CCOc1cncc(-c2ccc(NC(=O)C3(c4ccnc(NS(=O)(=O)C5CC5)n4)CCC(=C(F)F)CC3)nc2)n1 (centres unmarked) [Compound 1]	< 25 nM	< 30 nM	68800 ng·h/mL	11300 ng/mL	0.83 h	4.98 h	
CCOc1cncc(-c2ccc(NC(=O)C3(c4ccnc(NS(=O)(=O)C5CC5)n4)CCC(=CCN(C)C)CC3)nc2)n1 (centres unmarked) [Compound 15]	< 100 nM						< 50 nM
C=CC(=O)N1CCC(C(=O)Nc2ccc(-c3cncc(OCC)n3)cn2)(c2ccnc(NS(=O)(=O)C3CC3)n2)CC1 [Compound 26]	< 50 nM	< 30 nM	288 ng·h/mL	118 ng/mL	0.5 h	1.84 h	
CCOc1cncc(-c2ccc(NC(=O)C3(c4ccnc(NS(=O)(=O)C5CC5)n4)CCC(=CCN4CC(O)C4)CC3)nc2)n1 (centres unmarked) [Compound 27]	< 50 nM	< 100 nM					
CCOc1cncc(-c2ccc(NC(=O)C3(c4ccnc(NS(=O)(=O)C5CC5)n4)CCC(=CCN4CC(OC)C4)CC3)nc2)n1 (centres unmarked) [Compound 28]	< 50 nM	< 15 nM	46.7 ng·h/mL	33.1 ng/mL	0.25 h	1.8 h	
CCOc1cncc(-c2ccc(NC(=O)C3(c4ccnc(NS(=O)(=O)C5CC5)n4)CCC(=CCN(C)CCOC)CC3)nc2)n1 (centres unmarked) [Compound 29]	< 100 nM	< 30 nM					

Second part, led by results:

IC50 (hCTPS1 enzyme)	IC50 (Jurkat cells; [1])	AUC(0-t) (in vivo)	Cmax (in vivo)	Tmax (in vivo)	half-life (in vivo)	SMILES	IC50 (Jurkat cells; Jurkat, 72 h, read-out: Jurkat (IC50, nM))
< 25 nM	< 30 nM	87200 ng·h/mL	9330 ng/mL	3.33 h	4.95 h	CCOc1cncc(-c2ccc(NC(=O)C3(c4ccnc(NS(=O)(=O)C5CC5)n4)CCC(=CF)CC3)nc2)n1 (centres unmarked) [Compound 10]	
< 50 nM	< 50 nM					CCOc1cncc(-c2ccc(NC(=O)C3(c4ccnc(NS(=O)(=O)C5CC5)n4)CCC(=CCN4CCN(C)CC4)CC3)nc2)n1 (centres unmarked) [Compound 13]	
< 50 nM	< 30 nM					CCOc1cncc(-c2ccc(NC(=O)C3(c4ccnc(NS(=O)(=O)C5CC5)n4)CC(=CC(=O)OC)C3)nc2)n1 (centres unmarked) [Compound 14]	
< 50 nM	< 50 nM					CCOc1cncc(-c2ccc(NC(=O)C3(c4ccnc(NS(=O)(=O)C5CC5)n4)CCC(=CCN4CCCC4)CC3)nc2)n1 (centres unmarked) [Compound 16]	
< 50 nM	< 30 nM	137 ng·h/mL	177 ng/mL	0.25 h	1.64 h	CCOc1cncc(-c2ccc(NC(=O)C3(c4ccnc(NS(=O)(=O)C5CC5)n4)CCC(=CCNC(C)=O)CC3)nc2)n1 (centres unmarked) [Compound 22]	
< 50 nM	< 50 nM					CCOc1cncc(-c2ccc(NC(=O)C3(c4ccnc(NS(=O)(=O)C5CC5)n4)CCC(=CCNS(C)(=O)=O)CC3)nc2)n1 (centres unmarked) [Compound 23]	
